Test results from ChEMBL document CHEMBL2385047, “Synthesis and antifungal evaluation of pentyloxyl-diphenylisoxazoloyl pneumocandins and echinocandins” (Bioorg Med Chem Lett, 2013).
Converted amounts (≈) assume the structure as drawn.

Legend:
Candida albicans [1] = assay: Antifungal activity against Candida albicans MY1055 infected in DBA/2 mouse assessed as reduction of log CFU in kidney administered 30 mins as ip tid post infection measured after 24 hrs; type: functional
Candida albicans [2] = assay: Antifungal activity against caspofungin-resistant Candida albicans CLY-16996 harboring 1,3-beta-D-glucan synthase component FKS1/FKS1 S645F mutant assessed as growth inhibition after 24 hrs by NCCLS broth microdilution method; type: functional; conditions: CLY-16996, 24 h
[3] = Inhibition of caspofungin-resistant Candida albicans CLY-16997 1,3-beta-D-glucan synthase component FKS1/FKS1 S645P mutant using UDP[6,3H]-glucose as substrate after 60 mins by liquid scintillation counting analysis
[4] = Inhibition of caspofungin-resistant Candida albicans CLY-16996 1,3-beta-D-glucan synthase component FKS1/FKS1 S645F mutant using UDP[6,3H]-glucose as substrate after 60 mins by liquid scintillation counting analysis
Beta-1,3-glucan synthase = biological target: T1, Beta-1,3-glucan synthase (Candida albicans, UniProt O13383); assay: Inhibition of wild type Candida albicans MY1055 1,3-beta-D-glucan synthase using UDP[6,3H]-glucose as substrate after 60 mins by liquid scintillation counting analysis
T1 sequence (O13383 whole entry): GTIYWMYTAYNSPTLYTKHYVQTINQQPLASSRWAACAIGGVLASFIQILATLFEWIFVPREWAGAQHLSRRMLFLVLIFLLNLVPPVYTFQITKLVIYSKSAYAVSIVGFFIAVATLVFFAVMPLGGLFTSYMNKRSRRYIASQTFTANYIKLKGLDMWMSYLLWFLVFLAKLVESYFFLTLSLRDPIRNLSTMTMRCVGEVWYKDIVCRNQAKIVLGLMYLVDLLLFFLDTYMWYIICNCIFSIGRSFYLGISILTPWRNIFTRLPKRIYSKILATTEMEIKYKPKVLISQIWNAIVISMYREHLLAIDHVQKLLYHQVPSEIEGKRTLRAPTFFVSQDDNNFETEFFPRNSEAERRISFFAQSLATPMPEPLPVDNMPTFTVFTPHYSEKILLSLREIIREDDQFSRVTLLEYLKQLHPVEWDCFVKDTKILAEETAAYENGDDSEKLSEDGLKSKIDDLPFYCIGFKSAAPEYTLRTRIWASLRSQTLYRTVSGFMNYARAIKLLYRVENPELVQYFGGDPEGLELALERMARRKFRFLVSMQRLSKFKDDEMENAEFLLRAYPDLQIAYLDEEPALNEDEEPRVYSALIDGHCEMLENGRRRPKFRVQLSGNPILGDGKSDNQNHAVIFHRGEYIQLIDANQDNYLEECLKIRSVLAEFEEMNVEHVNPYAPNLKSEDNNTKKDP

Escherichia coli = assay: Antibacterial activity against Escherichia coli ATCC 25922 assessed as growth inhibition after 24 hrs by NCCLS broth microdilution method; type: functional; conditions: ATCC 25922, 24 h, read-out: MIC100
Staphylococcus aureus = assay: Antibacterial activity against methicillin-sensitive Staphylococcus aureus MB2865 assessed as growth inhibition after 24 hrs by NCCLS broth microdilution method; type: functional; conditions: MB2865, 24 h, read-out: MIC100
Candida albicans [5] = assay: Antifungal activity against Candida albicans NR3 assessed as growth inhibition after 24 hrs by NCCLS broth microdilution method; type: functional; conditions: NR3, 24 h
Candida albicans [6] = assay: Antifungal activity against Candida albicans CAI4-R1 assessed as growth inhibition after 24 hrs by NCCLS broth microdilution method; type: functional; conditions: CAI4-R1, 24 h
Candida albicans [7] = assay: Antifungal activity against wild type Candida albicans CAI4 assessed as growth inhibition after 24 hrs by NCCLS broth microdilution method; type: functional; conditions: CAI4, 24 h
[8] = test system: Meyerozyma guilliermondii; assay: Antifungal activity against wild type Candida guilliermondii CLY308 assessed as growth inhibition after 24 hrs by NCCLS broth microdilution method; type: functional; conditions: CLY308, 24 h
Aspergillus fumigatus = assay: Antifungal activity against Aspergillus fumigatus MF5668 caspofungin spontaneous resistance mutant assessed as growth inhibition after 24 hrs by NCCLS broth microdilution method; type: functional; conditions: MF5668, 24 h
Cryptococcus neoformans = assay: Antifungal activity against capsular wild type Cryptococcus neoformans MY2061 assessed as growth inhibition after 24 hrs by NCCLS broth microdilution method; type: functional; conditions: MY2061, 24 h, read-out: MIC100
Candida parapsilosis = assay: Antifungal activity against wild type Candida parapsilosis ATCC 22019 assessed as growth inhibition after 24 hrs by NCCLS broth microdilution method; type: functional; conditions: Lodderomyces parapsilosis, ATCC 22019, 24 h
Pichia kudriavzevii = assay: Antifungal activity against wild type Candida krusei CLY549 assessed as growth inhibition after 24 hrs by NCCLS broth microdilution method; type: functional; conditions: CLY549, 24 h
Clavispora lusitaniae = assay: Antifungal activity against wild type Candida lusitaniae MY1396 assessed as growth inhibition after 24 hrs by NCCLS broth microdilution method; type: functional; conditions: MY1396, 24 h
Nakaseomyces glabratus = assay: Antifungal activity against wild type Candida glabrata MY1381 assessed as growth inhibition after 24 hrs by NCCLS broth microdilution method; type: functional; conditions: MY1381, 24 h
Candida albicans [9] = assay: Antifungal activity against wild type Candida albicans MY1055 assessed as growth inhibition after 24 hrs by NCCLS broth microdilution method in presence of human serum; type: functional; conditions: MY1055, 24 h
Candida albicans [10] = assay: Antifungal activity against wild type Candida albicans MY1055 assessed as growth inhibition after 24 hrs by NCCLS broth microdilution method; type: functional; conditions: MY1055, 24 h

CC[C@H](C)C[C@H](C)CCCCCCCCC(=O)N[C@H]1C[C@@H](O)[C@@H](NCCN)NC(=O)[C@@H]2[C@@H](O)CCN2C(=O)[C@H]([C@H](O)CCN)NC(=O)[C@H]([C@H](O)[C@@H](O)c2ccc(O)cc2)NC(=O)[C@@H]2C[C@@H](O)CN2C(=O)[C@H]([C@@H](C)O)NC1=O [CASPOFUNGIN]
ED90 (Candida albicans [1]): 0.02 mg/kg/day
ED99 (Candida albicans [1]): 0.15 mg/kg/day
MIC (Candida albicans [2]): 64 µg/mL (≈ 58.5 µM)
IC50 [3]: > 9.2 µM
IC50 [4]: > 92 µM
IC50 (Beta-1,3-glucan synthase): 0.00024 µM
MIC (Escherichia coli): > 32 µg/mL
MIC (Staphylococcus aureus): 32 µg/mL (≈ 29.3 µM)
MIC80 (Candida albicans [5]): 2 µg/mL (≈ 1.83 µM)
MIC (Candida albicans [5]; read-out: MIC100): > 32 µg/mL
MIC80 (Candida albicans [6]): 1 µg/mL (≈ 0.915 µM)
MIC (Candida albicans [6]; read-out: MIC100): > 32 µg/mL
MIC80 (Candida albicans [7]): < 0.03 µg/mL
MIC (Candida albicans [7]; read-out: MIC100): 0.125 µg/mL (≈ 0.114 µM)
MIC80 [8]: 0.25 µg/mL (≈ 0.229 µM)
MIC ([8]; read-out: MIC100): 1 µg/mL (≈ 0.915 µM)
MIC80 (Aspergillus fumigatus): < 0.03 µg/mL
minimal effective concentration (Aspergillus fumigatus; read-out: MEC): > 32 µg/mL
MIC (Cryptococcus neoformans): 16 µg/mL (≈ 14.6 µM)
MIC80 (Candida parapsilosis): 0.25 µg/mL (≈ 0.229 µM)
MIC (Candida parapsilosis; read-out: MIC100): > 32 µg/mL
MIC80 (Pichia kudriavzevii): 0.25 µg/mL (≈ 0.229 µM)
MIC (Pichia kudriavzevii; read-out: MIC100): 2 µg/mL (≈ 1.83 µM)
MIC80 (Clavispora lusitaniae): < 0.03 µg/mL
MIC (Clavispora lusitaniae; read-out: MIC100): 0.5 µg/mL (≈ 0.457 µM)
MIC80 (Nakaseomyces glabratus): 0.06 µg/mL (≈ 0.0549 µM)
MIC (Nakaseomyces glabratus; read-out: MIC100): 0.25 µg/mL (≈ 0.229 µM)
MIC80 (Candida albicans [9]): 0.125 µg/mL
MIC (Candida albicans [9]; read-out: MIC100): 8 µg/mL
MIC80 (Candida albicans [10]): < 0.03 µg/mL
MIC (Candida albicans [10]; read-out: MIC100): 0.06 µg/mL (≈ 0.0549 µM)
